Test [1] concerns RAW264.7. The experiment in a line: Antiinflammatory activity in mouse RAW264.7 cells assessed as inhibition of LPS-induced NO production at 5 uM preincubated for 2 hrs followed by LPS stimulation and measured after 22 hrs by Griess reagent-based assay relative to control. It counts as functional. Particulars: time 24 hrs. On the technique in general: Nitrite, measured by Griess reagent, commonly stands in for NO production.

In test [2] the test system is Mus musculus. The test can be described thus: Protection against LPS-induced sepsis in C57BL/6 mouse model assessed as increase in survival rate at 15 mg/kg, ip qd administered for 3 days followed by LPS stimulation and measured every 2 hrs for 120 hrs (reference value: 10%). It counts as functional.
The target in test [3] is Bromodomain-containing protein 4 (Homo sapiens, UniProt O60885). The test can be described thus: Inhibition of BRD4 BD1 (unknown origin) using FAM-labeled JQ-1 as fluorescent substrate assessed as inhibition constant incubated for 30 mins by competitive fluorescence polarization method.
The test system of test [4] is RAW264.7. The test can be described thus: Antiinflammatory activity in mouse RAW264.7 cells assessed as reduction in LPS-induced TNF-alpha level at 5 to 10 uM preincubated for 2 hrs followed by LPS stimulation and measured after 22 hrs by ELISA. It counts as functional, cell-based. Particulars: dose 5-10 µM, time 24.0 hrs. On the technique in general: ELISA stands for enzyme-linked immunosorbent assay.

Test [5] deals with RAW264.7. The test can be described thus: Antiinflammatory activity in mouse RAW264.7 cells assessed as reduction in LPS-induced IL-1beta mRNA expression preincubated for 2 hrs followed by LPS stimulation and measured after 22 hrs by RT-qPCR analysis. It counts as functional, cell-based. Particulars: dose 5-25 µM, time 24.0 hrs, DDE = dose-dependent effect.
Test [6] has as its system RAW264.7. The test can be described thus: Antiinflammatory activity in mouse RAW264.7 cells assessed as reduction in LPS-induced IL-6 level at 5 to 10 uM preincubated for 2 hrs followed by LPS stimulation and measured after 22 hrs by ELISA. Particulars: dose 5-10 µM, time 24.0 hrs. It counts as functional, cell-based.
The test system of test [7] is Mus musculus. The experiment in a line: Protection against LPS-induced sepsis in C57BL/6 mouse model assessed as improvement in orbital movement at 30 mg/kg, ip qd administered for 3 days followed by LPS stimulation. Particulars: time 3.0 day. It counts as functional, organism-based.
Test [8] has as its system Mus musculus. The test can be described thus: Protection against LPS-induced sepsis in C57BL/6 mouse model assessed as improvement in mobility at 30 mg/kg, ip qd administered for 3 days followed by LPS stimulation. It counts as functional, organism-based. Particulars: time 3.0 day.
Test [9] has as its system Mus musculus. The experiment in a line: Protection against LPS-induced sepsis in C57BL/6 mouse model assessed as reduction in hypothermia administered intraperitoneally daily for 3 days followed by LPS stimulation for 12 hrs and measured every 1 hr by digital thermometer. It counts as functional, organism-based. Conditions: dose lower […], dose upper 30.0 mg/kg, route ip, time 84.0 hrs, DDE = dose-dependent effect.

Test [10] deals with RAW264.7. The test can be described thus: Antiinflammatory activity in mouse RAW264.7 cells assessed as reduction in LPS-induced TNF-alpha mRNA expression preincubated for 2 hrs followed by LPS stimulation and measured after 22 hrs by RT-qPCR analysis. It counts as functional, cell-based. Conditions: dose 5-25 µM, time 24.0 hrs, DDE = dose-dependent effect. For orientation: Quantitative PCR measures a nucleic acid by following its amplification.

Test [11] has as its system RAW264.7. The test can be described thus: Antiinflammatory activity in mouse RAW264.7 cells assessed as reduction in LPS-induced IL-6 mRNA expression preincubated for 2 hrs followed by LPS stimulation and measured after 22 hrs by RT-qPCR analysis. Particulars: dose 5-25 µM, time 24.0 hrs, DDE = dose-dependent effect. It counts as functional, cell-based.
Test [12] relates to Mus musculus. The test can be described thus: Antiinflammatory activity against LPS-induced sepsis in C57BL/6 mouse model assessed as reduction in IL-6 level at 15 mg/kg, ip qd administered for 3 days followed by LPS stimulation and measured after 12 hrs by ELISA. It counts as functional, organism-based. Conditions: time 84.0 hrs.
Test [13] relates to RAW264.7. The test can be described thus: Antiinflammatory activity in mouse RAW264.7 cells assessed as inhibition of LPS-induced NO production at 10 uM preincubated for 2 hrs followed by LPS stimulation and measured after 22 hrs by Griess reagent-based assay relative to control. It counts as functional. Particulars: time 24 hrs.
For test [14], the system named is Mus musculus. The test can be described thus: Protection against LPS-induced sepsis in C57BL/6 mouse model assessed as reduction in white secretion from eyes at 30 mg/kg, ip qd administered for 3 days followed by LPS stimulation. It counts as functional, organism-based. Conditions: time 3.0 day.
Test [15] has as its system Mus musculus. The test can be described thus: Antiinflammatory activity against LPS-induced sepsis in C57BL/6 mouse model assessed as reduction in TNF-alpha level at 15 mg/kg, ip qd administered for 3 days followed by LPS stimulation and measured after 12 hrs by ELISA. Conditions: time 84.0 hrs. It counts as functional, organism-based.
The subject of test [16] is Mus musculus. The experiment in a line: Protection against LPS-induced sepsis in C57BL/6 mouse model assessed as increase in survival rate at 30 mg/kg, ip qd administered for 3 days followed by LPS stimulation and measured every 2 hrs for 120 hrs (reference value: 10%). It counts as functional.

Active and inactive are the calls of the source. No cut-off for these calls is given here.

As usually defined, the inhibition is the change of the read-out against control, counted positive when it falls. Broadly, the Ki is the dissociation constant of the complex between target and ligand, obtained from inhibition or displacement.

Turning to `COc1cc(-c2nc(SCc3ccccc3C)[nH]c(=O)c2C#N)cc(OC)c1OC`, the inhibition at 5 µM in test [1] amounted to 74.2%. The survival at 15 mg/kg in [2] came out at 50%. Further, in test [3], the inhibition constant (Ki) came out at 830 nM. Moreover, the outcome in test [4], in test [6], in test [7], in [8], in test [12] and in [14] was Active. For the same molecule, in test [15], the result was Active. The Activity entry in test [5], in [9], in [10] and in test [11] was “Dde” throughout. Also, in test [13], the inhibition at 10 µM amounted to 99.8%. Further, the survival at 30 mg/kg in [16] is 80%.

The values above are taken from ChEMBL document CHEMBL5113393, “Discovery of 2-((2-methylbenzyl)thio)-6-oxo-4-(3,4,5-trimethoxyphenyl)-1,6-dihydropyrimidine-5-carbonitrile as a novel and effective bromodomain and extra-terminal (BET) inhibitor for the treatment of sepsis” (Eur J Med Chem, 2022).
